According to patent publication US10781224B2, “Bis(oxymethyl)phosphinic acid and biogenic metal salts thereof as regulators of plant growth and development” (priority 2016, dated 2020):

Assays:
Assay type in all cases: in vivo
[1] = test system: winter wheat (Vershin variety); assay: Winter wheat seed treatment with BHMPA salts: germination energy and germination rate
Outline: (§1)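 Corn, winter wheat and rice seeds (50 per dish, on filter paper) were soaked for 1 h in BHMPA or its metal salts at 1·10^−6-1·10^−12%, with water as control. Germination energy was read on day 4 and germination rate on day 8 for wheat and day 7 for rice and corn, following GOST 12038-84, as the mean of four replicates.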

[2] = test system: rice (Diamant variety); assay: Rice seed treatment with BHMPA salts: germination energy and germination rate
Outline: as §1

[3] = test system: corn (Krasnodar 385 MV variety); assay: Corn seed treatment with BHMPA salts: germinating power
Outline: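 Seeds (50 per Petri dish on two layers of filter paper) soaked 1 h in BHMPA or its Ca, Mg, Na, Co, Mn, Cu or Zn salts at 1·10^−6-1·10^−12%, with water controls. Germination energy read on day 4, germination on day 8 (wheat) or day 7 (rice, corn), as % means of four replicates. Germinating power taken as root and sprout length plus wet and dry mass per 100 seedlings.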

[4] = winter wheat Vershin, 1·10^−6% solution
[5] = winter wheat Vershin, 1·10^−7% solution
[6] = winter wheat Vershin, 1·10^−8% solution
[7] = winter wheat Vershin, 1·10^−9% solution
[8] = winter wheat Vershin, 1·10^−10% solution
[9] = winter wheat Vershin, 1·10^−11% solution
[10] = winter wheat Vershin, 1·10^−12% solution
[11] = winter wheat, comparative study vs Melaphen, 1·10^−11% solution
[12] = rice seed treatment, solution 1 · 10^−10%
[13] = seed treatment, concentration 1 · 10^−6%
[14] = seed treatment, concentration 1 · 10^−7%
[15] = seed treatment, concentration 1 · 10^−8%
[16] = seed treatment, concentration 1 · 10^−9%
[17] = seed treatment, concentration 1 · 10^−10%
[18] = seed treatment, concentration 1 · 10^−11%
[19] = seed treatment, concentration 1 · 10^−12%
[20] = corn seeds, solution concentration 1 · 10^−6%, magnesium salt of BHMPA
[21] = corn seeds, solution concentration 1 · 10^−7%, magnesium salt of BHMPA
[22] = corn seeds, solution concentration 1 · 10^−8%, magnesium salt of BHMPA
[23] = corn seeds, solution concentration 1 · 10^−9%, magnesium salt of BHMPA
[24] = corn seeds, solution concentration 1 · 10^−10%, magnesium salt of BHMPA
[25] = corn seeds, solution concentration 1 · 10^−11%, magnesium salt of BHMPA
[26] = corn seeds, solution concentration 1 · 10^−12%, magnesium salt of BHMPA
[27] = corn, over the tested concentrations

O=P([O-])(CO)CO.O=P([O-])(CO)CO.[Mg+2] [Mg-salt, Magnesium BHMPA Salt]
Germination energy [1, 4]: 85.0% | Germination rate [1, 4]: 89.3% | Germination energy [1, 5]: 88.4% | Germination rate [1, 5]: 92.0% | Germination energy [1, 6]: 88.8% | Germination rate [1, 6]: 92.0% | Germination energy [1, 7]: 89.3% | Germination rate [1, 7]: 93.0% | Germination energy [1, 8]: 89.9% | Germination rate [1, 8]: 93.3% | Germination energy [1, 9]: 93.1% | Germination rate [1, 9]: 96.0% | Germination energy [1, 10]: 90.0% | Germination rate [1, 10]: 93.3% | Germination energy [1, 11]: 93.3% | Germination rate [1, 11]: 96.7% | Germination energy, % [2, 12]: 87.5% | Germination rate, % [2, 12]: 94.0% | Germination energy ([2]; rice, 1·10^−10% solution): 86.3% | Germination rate ([2]; rice, 1·10^−10% solution): 92.7% | Germination energy [2, 13]: 77.7% | Germination rate [2, 13]: 83.3% | Germination energy [2, 14]: 80.3% | Germination rate [2, 14]: 85.0% | Germination energy [2, 15]: 81.7% | Germination rate [2, 15]: 87.3% | Germination energy [2, 16]: 84.3% | Germination rate [2, 16]: 90.7% | Germination energy [2, 17]: 86.3% | Germination rate [2, 17]: 92.7% | Germination energy [2, 18]: 83.3% | Germination rate [2, 18]: 89.3% | Germination energy [2, 19]: 79.3% | Germination rate [2, 19]: 84.7% | optimum concentration for treating corn seeds before sowing ([3]; corn): 1·10^−9% | Length, root [3, 20]: 6.4 cm | Length, root, + % to control [3, 20]: 21% | Length, sprout [3, 20]: 2.9 cm | Length, sprout, + % to control [3, 20]: −12% | Mass, dry, root [3, 20]: 1.60 g/100 plantlings | Mass, dry, root, + % to control [3, 20]: 9.5% | Mass, dry, sprout [3, 20]: 1.07 g/100 plantlings | Mass, dry, sprout, + % to control [3, 20]: 11% | Mass, wet, root [3, 20]: 10.29 g/100 plantlings | Mass, wet, root, + % to control [3, 20]: 17% | Mass, wet, sprout [3, 20]: 7.17 g/100 plantlings | Mass, wet, sprout, + % to control [3, 20]: 12% | Length, root [3, 21]: 7.0 cm | Length, root, + % to control [3, 21]: 32% | Length, sprout [3, 21]: 3.3 cm | Length, sprout, + % to control [3, 21]: 0% | Mass, dry, root [3, 21]: 1.81 g/100 plantlings | Mass, dry, root, + % to control [3, 21]: 24% | Mass, dry, sprout [3, 21]: 1.12 g/100 plantlings | Mass, dry, sprout, + % to control [3, 21]: 17% | Mass, wet, root [3, 21]: 10.86 g/100 plantlings | Mass, wet, root, + % to control [3, 21]: 24% | Mass, wet, sprout [3, 21]: 7.93 g/100 plantlings | Mass, wet, sprout, + % to control [3, 21]: 23.5% | Length, root [3, 22]: 8.5 cm | Length, root, + % to control [3, 22]: 60% | Length, sprout [3, 22]: 3.5 cm | Length, sprout, + % to control [3, 22]: 6% | Mass, dry, root [3, 22]: 1.91 g/100 plantlings | Mass, dry, root, + % to control [3, 22]: 31% | Mass, dry, sprout [3, 22]: 1.19 g/100 plantlings | Mass, dry, sprout, + % to control [3, 22]: 24% | Mass, wet, root [3, 22]: 11.64 g/100 plantlings | Mass, wet, root, + % to control [3, 22]: 33% | Mass, wet, sprout [3, 22]: 8.89 g/100 plantlings | Mass, wet, sprout, + % to control [3, 22]: 38% | Length, root [3, 23]: 9.1 cm | Length, sprout [3, 23]: 3.8 cm | Mass, dry, root [3, 23]: 2.02 g/100 plantlings | Mass, dry, root, + % to control [3, 23]: 38% | Mass, dry, sprout [3, 23]: 1.27 g/100 plantlings | Mass, dry, sprout, + % to control [3, 23]: 32% | Mass, wet, root [3, 23]: 12.42 g/100 plantlings | Mass, wet, root, + % to control [3, 23]: 42% | Mass, wet, sprout [3, 23]: 10.35 g/100 plantlings | Mass, wet, sprout, + % to control [3, 23]: 61% | Length, root [3, 24]: 8.3 cm | Length, root, + % to control [3, 24]: 57% | Length, sprout [3, 24]: 3.6 cm | Length, sprout, + % to control [3, 24]: 9% | Mass, dry, root [3, 24]: 1.96 g/100 plantlings | Mass, dry, root, + % to control [3, 24]: 34% | Mass, dry, sprout [3, 24]: 1.20 g/100 plantlings | Mass, dry, sprout, + % to control [3, 24]: 25% | Mass, wet, root [3, 24]: 11.86 g/100 plantlings | Mass, wet, root, + % to control [3, 24]: 35% | Mass, wet, sprout [3, 24]: 8.62 g/100 plantlings | Mass, wet, sprout, + % to control [3, 24]: 34% | Length, root [3, 25]: 8.1 cm | Length, root, + % to control [3, 25]: 53% | Length, sprout [3, 25]: 3.0 cm | Length, sprout, + % to control [3, 25]: −9% | Mass, dry, root [3, 25]: 1.81 g/100 plantlings | Mass, dry, root, + % to control [3, 25]: 24% | Mass, dry, sprout [3, 25]: 1.10 g/100 plantlings | Mass, dry, sprout, + % to control [3, 25]: 14.5% | Mass, wet, root [3, 25]: 10.04 g/100 plantlings | Mass, wet, root, + % to control [3, 25]: 14% | Mass, wet, sprout [3, 25]: 8.18 g/100 plantlings | Mass, wet, sprout, + % to control [3, 25]: 27% | Length, root [3, 26]: 7.8 cm | Length, root, + % to control [3, 26]: 47% | Length, sprout [3, 26]: 2.8 cm | Length, sprout, + % to control [3, 26]: −15% | Mass, dry, root [3, 26]: 1.57 g/100 plantlings | Mass, dry, root, + % to control [3, 26]: 7.5% | Mass, dry, sprout [3, 26]: 0.94 g/100 plantlings | Mass, dry, sprout, + % to control [3, 26]: −2% | Mass, wet, root [3, 26]: 9.18 g/100 plantlings | Mass, wet, root, + % to control [3, 26]: 5% | Mass, wet, sprout [3, 26]: 7.04 g/100 plantlings | Mass, wet, sprout, + % to control [3, 26]: 10% | Length, root, + % to control ([3]; corn, 1·10^−9% solution): 72% | Length, sprout, + % to control ([3]; corn, 1·10^−9% solution): 15% | Mass, dry, root, + % to control ([3]; corn, 1·10^−9% solution): 38% | Mass, dry, sprout, + % to control ([3]; corn, 1·10^−9% solution): 32% | Mass, wet, root, + % to control ([3]; corn, 1·10^−9% solution): 42% | Mass, wet, sprout, + % to control ([3]; corn, 1·10^−9% solution): 61% | increase of germinating power of the roots [3, 27]: 21%-72% | sprout length changes [3, 27]: −15% to +15%
